Patent US10821152B2, “Methods, agents and compositions for treatment of inflammatory conditions” (Betanien Hospital, priority 2014, dated 2020)
Values joined by “and” are separate entries in the source; they are usually repeats but may differ in a detail not shown here. Identical values can stand only once. Non-standard residues stand in square brackets, D forms with d. Residues, ends and D or L forms follow the SMILES beside them. *: point of attachment. dPhe(4-NHCONH2) = NC(=O)Nc1ccc(C[C@@H](N)C(=O)O)cc1; Dihydroorotyl(S) = O=C1C[C@@H](C(=O)*)NC(=O)N1; dPhe(4-Cl) = N[C@H](Cc1ccc(Cl)cc1)C(=O)O; Phe(4-NH2) = Nc1ccc(C[C@H](N)C(=O)O)cc1; d2Nal = N[C@H](Cc1ccc2ccccc2c1)C(=O)O; Lys(iPr) = CC(C)NCCCC[C@H](N)C(=O)O; d3Pal = N[C@H](Cc1cccnc1)C(=O)O

Experiments:
Type in all cases: in vivo, human
[1] = test system: patient with systemic sclerosis; experiment: Treatment of systemic sclerosis; conditions: SSc patient
Description: • person, diagnosed with systemic sclerosis • Fulfilled the 2013 EULAR/ACR classification criteria for systemic sclerosisl. • Diagnosis based upon Raynauds phenomenon, positive ANA, high titre anti-Scl 70 antibodies, marked skin changes typical of scleroderma, and esophageal dysmotility. • Previously tried Cyclophosphamide and Mycophenolate Mofetil. • Progressive disease and worsening scleroderma skin features, despite therapy. • Rapid progressive cardiac disease, verified by biopsy.
Experimental Treatment • 5th December 2014 received first dose of Degarelix 240 mg sc. • 9th January 2015 received second dose of Degarelix 80 mg sc.
[…] They are important factors in patients' evaluations of quality of life2. Their precise objective evaluation can be included in randomized controlled trials3. Their pathogenesis is unclear. Histologically, there is a plug-like hyperkeratosis with parakeratosis, homogenized collagen fibers and perivascular mononuclear cell infiltration4.

[2] = test system: patient with lithium induced psoriasis; experiment: Treatment of psoriasis (PASI, serum uric acid, testosterone)
Experimental: The PASI score is a standardized score for assessing disease activity in psoriasis.
He therefore received testosterone supplementation in the form of Testogel containing 50 mg of testosterone, first daily; thereafter every 3 days to maintain testosterone levels within the normal range.
There are very few trials of lithium induced psoriasis. One trial examined 15 patients with psoriasis who were taking lithium.

[3] = test system: patient with ankylosing spondylitis; experiment: Treatment of ankylosing spondylitis patient (BASDAI, laboratory variables); conditions: AS patient
Description: Diagnosed with ankylosing spondylitis in 1984, HLAB27 positive, with repeated iridocyclitis. Used non-steroidal anti-inflammatory drugs previously. They were offered the TNF-alpha inhibitor Golilimumab in 2010. Their disease activity score was 8.9 in October 2010 (see below for explanation of disease activity score) on initiating Golilimumab; by the June 2012 this score had reduced to 6.6, but by May 2013 the effect had worn off and their score was 7.6. May 2013, they initiated Enbrel treatment, but their disease activity increased from 7.6 to 8.3. Due to their poor response to TNF-alpha therapy, they were offered the GnRH antagonist Degarelix in September 2014.
Disease activity in ankylosing spondylitis is measured by the BASDAI (Bath Ankylosing Spondylitis Disease Activity Index1), has been extensively validated in clinical trials, 2, 3 and is one of the most commonly used outcome measures in clinical trials. This is a componsite index that evaluates fatigue, axial and peripheral pain, stiffness and enthesopathy. Their BASDAI was at 8.7 at baseline. In September 2014 they received their first dose of Degarelix 240 mg sc. By 2 weeks, their BASDAI had reduced to 6.8, and by 6 weeks it had reduced to 5.8. This is the lowest BASDAI score they have ever had since we first started using this method of assessment 4 years ago in 2010. Their morning stiffness lasted 4 hours at baseline, by 6 weeks their morning stiffness had reduced to 2 hours. They had their second dose of Degarelix 80 mg s.c in October 2014. Lumbar flexion and maximum arm abduction were increased after 6 weeks of treatment.
Response to therapy in clinical practice is defined as improvement of 2 units or 50% on a 0-10 scale of the BASDAI, and expert opinion that the treatment should be continued. Their reduction by 6 weeks was 2.9 units, and 7.1 units with an 82% BASDAI score improvement by 9 weeks, and we shall continue treatment. A BASDAI 50% improvement is defined as a major clinical response. […] For comparison, approximately 50-60% of patients achieve a BASDAI 50 by 12 weeks on TNF inhibitors (4). Their ESR has decreased from 46 mm to 23 mm, which is their lowest ESR reading in 19 years. […] By 9 weeks of GnRH antagonist therapy, their kidney function has normalized, and fasting glucose reduced from 7.4 to 6.5 mmol/L. By 3 months, the effect on their ankylosing spondylitis remained, creatinine was at 98 umol/L, with a glomerular filtration rate of 66 ml/min/1.73 m2 in December 2014.

Question: With `CC(=O)N[C@H](Cc1ccc2ccccc2c1)C(=O)N[C@H](Cc1ccc(Cl)cc1)C(=O)N[C@H](Cc1cccnc1)C(=O)N[C@@H](CO)C(=O)N[C@@H](Cc1ccc(NC(=O)[C@@H]2CC(=O)NC(=O)N2)cc1)C(=O)N[C@H](Cc1ccc(NC(N)=O)cc1)C(=O)N[C@@H](CC(C)C)C(=O)N[C@@H](CCCCNC(C)C)C(=O)N1CCC[C@H]1C(=O)N[C@H](C)C(N)=O` [Degarelix] (Ac-[d2Nal][dPhe(4-Cl)][d3Pal]S[Phe(4-NH2)](Dihydroorotyl(S))[dPhe(4-NHCONH2)]L[Lys(iPr)]P[dA]-NH2) as the compound, how does the “Digital tip ulcers/pitting scars” value ([1]; 5 weeks) read?
Answer: 2

Question: What about the “Modified Rodnan Skin Score” value ([1]; 5 weeks) of the same compound?
Answer: 40

Question: What about the Sleep ([1]; 5 weeks) of the same compound?
Answer: 5 hrs/night

Question: And the “VAS Fatigue” value ([1]; 5 weeks)?
Answer: 75

Question: What about the “VAS Fingertip pain/pitting scars/ulcers” value ([1]; 5 weeks) of the same compound?
Answer: 40

Question: And the “VAS Gastrointestinal Symptoms” value ([1]; 5 weeks)?
Answer: 80

Question: What about the “VAS Global” value ([1]; 5 weeks) of the same compound?
Answer: 40

Question: What about the “VAS Lung/dyspnea” value ([1]; 5 weeks) of the same compound?
Answer: 80

Question: What about the “VAS Pain” value ([1]; 5 weeks) of the same compound?
Answer: 10

Question: What about the “VAS Raynauds/vascular” value ([1]; 5 weeks) of the same compound?
Answer: 40

Question: What about the “Digital tip ulcers/pitting scars” value ([1]; 6 weeks) of the same compound?
Answer: 2

Question: And the “Modified Rodnan Skin Score” value ([1]; 6 weeks)?
Answer: 40

Question: And the Sleep ([1]; 6 weeks)?
Answer: 5.5 hrs/night

Question: What about the “VAS Fatigue” value ([1]; 6 weeks) of the same compound?
Answer: 60

Question: What about the “VAS Fingertip pain/pitting scars/ulcers” value ([1]; 6 weeks) of the same compound?
Answer: 30

Question: What about the “VAS Gastrointestinal Symptoms” value ([1]; 6 weeks) of the same compound?
Answer: 60

Question: What about the “VAS Global” value ([1]; 6 weeks) of the same compound?
Answer: 40

Question: And the “VAS Lung/dyspnea” value ([1]; 6 weeks)?
Answer: 50

Question: And the “VAS Pain” value ([1]; 6 weeks)?
Answer: 10

Question: What about the “VAS Raynauds/vascular” value ([1]; 6 weeks) of the same compound?
Answer: 30

Question: What about the “fingertip pain score (0-100 mm)” value ([1]; after 6 weeks of treatment (FIG. 12)) of the same compound?
Answer: 30

Question: And the “Digital tip ulcers/pitting scars” value ([1]; baseline 5.12.14)?
Answer: 5

Question: What about the “HAQ DI” value ([1]; baseline 5.12.14) of the same compound?
Answer: 1.88

Question: And the “Modified Rodnan Skin Score” value ([1]; baseline 5.12.14)?
Answer: 42

Question: And the Sleep ([1]; baseline 5.12.14)?
Answer: 2 hrs/night

Question: What about the “VAS Fatigue” value ([1]; baseline 5.12.14) of the same compound?
Answer: 100

Question: And the “VAS Fingertip pain/pitting scars/ulcers” value ([1]; baseline 5.12.14)?
Answer: 100

Question: And the “VAS Gastrointestinal Symptoms” value ([1]; baseline 5.12.14)?
Answer: 100

Question: What about the “VAS Global” value ([1]; baseline 5.12.14) of the same compound?
Answer: 100

Question: What about the “VAS Lung/dyspnea” value ([1]; baseline 5.12.14) of the same compound?
Answer: 100

Question: And the “VAS Pain” value ([1]; baseline 5.12.14)?
Answer: 100

Question: What about the “VAS Raynauds/vascular” value ([1]; baseline 5.12.14) of the same compound?
Answer: 100

Question: And the “fingertip pain score (0-100 mm)” value ([1]; baseline prior to treatment (FIG. 11))?
Answer: 100 mm

Question: And the “testosterone levels (normal 8-35 nmol/L)” value ([2]; after the first week)?
Answer: < 1 nmol/L

Question: And the improvement in psoriasis ([2]; at 6 months)?
Answer: stable

Question: And the “Psoriasis Area Severity Index (PASI) score” value ([2]; baseline)?
Answer: 53.6

Question: And the “serum uric acid (230-480 umol/L)” value ([2]; baseline)?
Answer: 485 µmol/L

Question: And the “testosterone levels (normal 8-35 nmol/L)” value ([2]; before therapy)?
Answer: 12 nmol/L

Question: What about the PASI reduction ([2]; by 8 weeks) of the same compound?
Answer: 23%

Question: And the “serum uric acid (230-480 umol/L)” value ([2]; by 8 weeks)?
Answer: 432 µmol/L

Question: What about the “testosterone levels (normal 8-35 nmol/L)” value ([2]; week 8, under testosterone substitution (Testogel)) of the same compound?
Answer: 9 nmol/L

Question: And the “ASAS response (at least 80% improvement)” value [3]?
Answer: achieved an ASAS 80

Question: And the CRP ([3]; 10.09.14 (baseline))?
Answer: <5

Question: And the “Creatinine (60-105 umol/L)” value ([3]; 10.09.14 (baseline))?
Answer: 112↑ umol/L

Question: What about the “ESR <20 mm” value ([3]; 10.09.14 (baseline)) of the same compound?
Answer: 46 mm and 46↑ mm

Question: What about the “Glomerular filtration rate (>60 ml/min/1.73 m^2)” value ([3]; 10.09.14 (baseline)) of the same compound?
Answer: 56↓ ml/min/1.73 m^2

Question: And the “Glucose fasting (4.0-6.0 mmol/L)” value ([3]; 10.09.14 (baseline))?
Answer: 7.4 mmol/L

Question: And the “Urate (230-480 umol/L)” value ([3]; 10.09.14 (baseline))?
Answer: 515 umol/L and 515↑ umol/L

Question: And the CRP ([3]; 10.11.14)?
Answer: <5

Question: What about the “Creatinine (60-105 umol/L)” value ([3]; 10.11.14) of the same compound?
Answer: 99 µmol/L

Question: What about the “Glomerular filtration rate (>60 ml/min/1.73 m^2)” value ([3]; 10.11.14) of the same compound?
Answer: 65 ml/min/1.73 m^2

Question: What about the “Urate (230-480 umol/L)” value ([3]; 10.11.14) of the same compound?
Answer: 426 µmol/L

Question: What about the “Glucose fasting (4.0-6.0 mmol/L)” value ([3]; 10.11.14 (by 9 weeks)) of the same compound?
Answer: 6.5 mmol/L

Question: What about the CRP ([3]; 24.09.14) of the same compound?
Answer: <5

Question: And the “Creatinine (60-105 umol/L)” value ([3]; 24.09.14)?
Answer: 114↑ umol/L

Question: And the “ESR <20 mm” value ([3]; 24.09.14)?
Answer: 31↑ mm

Question: And the “Glomerular filtration rate (>60 ml/min/1.73 m^2)” value ([3]; 24.09.14)?
Answer: 55↓ ml/min/1.73 m^2

Question: What about the “Urate (230-480 umol/L)” value ([3]; 24.09.14) of the same compound?
Answer: 512↑ umol/L

Question: And the CRP ([3]; 27.10.14)?
Answer: <5

Question: What about the “Creatinine (60-105 umol/L)” value ([3]; 27.10.14) of the same compound?
Answer: 111↑ umol/L

Question: What about the “ESR <20 mm” value ([3]; 27.10.14) of the same compound?
Answer: 28↑ mm

Question: And the “Glomerular filtration rate (>60 ml/min/1.73 m^2)” value ([3]; 27.10.14)?
Answer: 56↓ ml/min/1.73 m^2

Question: And the “Urate (230-480 umol/L)” value ([3]; 27.10.14)?
Answer: 495↑ umol/L

Question: And the “Lumbar flexion and maximum arm abduction” value ([3]; after 6 weeks of treatment)?
Answer: increased

Question: What about the BASDAI ([3]; baseline) of the same compound?
Answer: 8.7

Question: And the morning stiffness ([3]; baseline)?
Answer: 4 h

Question: What about the BASDAI ([3]; by 2 weeks) of the same compound?
Answer: 6.8

Question: And the creatinine ([3]; by 3 months (December 2014))?
Answer: 98 µmol/L

Question: What about the glomerular filtration rate ([3]; by 3 months (December 2014)) of the same compound?
Answer: 66 ml/min/1.73 m2

Question: What about the BASDAI ([3]; by 6 weeks) of the same compound?
Answer: 5.8

Question: And the BASDAI reduction ([3]; by 6 weeks)?
Answer: 2.9 units

Question: And the morning stiffness ([3]; by 6 weeks)?
Answer: 2 h

Question: And the BASDAI reduction ([3]; by 9 weeks)?
Answer: 7.1 units

Question: What about the BASDAI score improvement ([3]; by 9 weeks) of the same compound?
Answer: 82%

Question: What about the kidney function ([3]; by 9 weeks) of the same compound?
Answer: normalized
